Measured values from ChEMBL document CHEMBL1141330, “Vanillic acid derivatives from the green algae Cladophora socialis as potent protein tyrosine phosphatase 1B inhibitors” (J Nat Prod, 2007).

Target: T1, Tyrosine-protein phosphatase non-receptor type 1 (Homo sapiens, UniProt P18031)
T1 sequence (P18031 whole entry): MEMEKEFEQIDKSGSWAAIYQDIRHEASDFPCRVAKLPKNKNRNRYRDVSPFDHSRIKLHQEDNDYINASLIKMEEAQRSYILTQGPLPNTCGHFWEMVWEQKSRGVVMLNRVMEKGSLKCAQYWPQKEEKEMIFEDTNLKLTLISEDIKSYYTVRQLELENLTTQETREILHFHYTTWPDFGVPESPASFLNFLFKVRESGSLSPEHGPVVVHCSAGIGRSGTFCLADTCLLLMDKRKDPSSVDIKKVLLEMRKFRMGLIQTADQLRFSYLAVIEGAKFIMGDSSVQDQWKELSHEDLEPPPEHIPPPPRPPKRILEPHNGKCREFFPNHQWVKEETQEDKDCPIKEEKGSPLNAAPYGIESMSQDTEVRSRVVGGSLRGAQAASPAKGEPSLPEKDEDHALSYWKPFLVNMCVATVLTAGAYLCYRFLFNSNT
Test: Inhibition of PTP1B

Structure (SMILES)	IC50
O=C(O)c1cc2oc3c(Oc4ccc(-c5ccc(O)c(O)c5)cc4O)cc(O)cc3c2cc1O	3710 nM
O=C(O)c1cc2oc3c(Oc4ccc(-c5ccc(OS(=O)(=O)O)c(O)c5)cc4O)cc(O)cc3c2cc1O	1700 nM
